{"source": "patent US20250134855A1", "about": "“CO[…] AND METHODS OF USING SAME” (LYKOS THERAPEUTICS, INC., priority 2022, published 2025)", "test_system": "participants with PTSD, eating disorder symptoms", "test": "EAT-26 eating disorder psychopathology before and after MDMA-AT (Phase 3 trial NCT03537014)", "type": "in vivo, human", "text": "The Eating Attitudes Test (EAT or EAT-26) is a standardized self-reported questionnaire of symptoms and concerns characteristic of eating disorders. The EAT-26 uses a six-point scale based on how often the individual engages in specific behaviors. The questions can be answered: Always, Usually, Often, Sometimes, Rarely, and Never. Completing the EAT-26 yields a “referral index” based on three criteria: 1) the total score based on the answers to the EAT-26 questions; 2) answers to the behavioral questions related to eating symptoms and weight loss, and 3) the individual's body mass index (BMI) calculated from their height and weight. In some cases, an individual can be recommended for additional care if the individual meets a “cut off” score or threshold on one or more criteria. For example, if an individual score higher than a 20, the individual should be referred to a qualified professional for potential diagnosis of an eating disorder. (See, for example, Garner, D. M., & Garfinkel, P. E. (1979). Psychological Medicine, 9, 273-279.)\nExploratory data on ED psychopathology were analyzed that were collected as part of a Phase 3 trial (trial ID: NCT03537014, which is herein incorporated by reference in its entirety), which was a double-blind randomized controlled study that compared efficacy and safety of MDMA-AT between placebo and MDMA groups for treatment of PTSD. EAT-26 was included as a pre-specified exploratory measure to assess participants' attitudes about eating and food in addition to the presence of previously undetected EDs. EAT-26 assessments were collected at baseline (visit 4) and study termination (visit 20). This self-reported questionnaire consists of 25 components, each rated on a six-point scale of 0 (Never) to 3 (Always), plus an additional component rated from 0 (Always) to 3 (Never). The […] item addresses occurrence and frequency of specific eating behaviors, such as binge eating. Scores were combined to produce a total EAT-26 score, ranging from 0 to 78, with lower values indicating fewer symptoms. Participants meeting a total cut-off score of 20 or greater are considered likely candidates for having an ED diagnosis and warrant referral to a qualified professional.\nAmong a total of 90 participants who were randomized and received treatment, 89 participants completed the EAT-26 assessment at baseline, and seven participants withdrew from the study and were missing follow-up data (3 MDMA, 4 placebo). A total of 82 of 90 participants (91.1%) completed both baseline and follow-up EAT-26 assessments and were included in the final analysis. This preliminary analysis of an exploratory measure included only completers of both EAT-26 scores at baseline and follow-up assessments to avoid imputation of data that would attenuate the accuracy of results. […] The baseline sample consisted of participants who were majority female (65.2%), identified as women (62.9%), non-Hispanic White or Latino (89.9%), college graduates (70.8%), and the mean (SD) age was 41.0 (12.00) years. In total, 17 participants had been prescribed sertraline, of which 8 and 9 were assigned to the MDMA and placebo treatment groups, respectively. Furthermore, 6 participants had been prescribed paroxetine, which were equally distributed between MDMA and placebo treatment groups (3 and 3, respectively). At baseline, BMI (kg/m2) scores were in the ‘normal’ range (BMI 18.5-24.9) in 56.2%, ‘overweight’ (BMI 25.0-29.9) in 28.1%, and ‘obese’ (BMI≥30) in 15.7% of participants. There were no treatment group differences in demographic variables or baseline ACE, BDI-II, CAPS-5, or lifetime C-SSRS assessments. Mean BMI (SD) was 26.0 (4.8) kg/m2 in the MDMA-AT group and 24.8 (4.2) kg/m2 in the PLAC-AT group (t=1.3, p=. 2).", "data": [{"smiles": "CNC(C)Cc1ccc2c(c1)OCO2", "note": "(stereo not drawn) [MDMA, 3,4-methylenedioxymethamphetamine]", "values": [{"measurement": "Cohen's d, EAT-26 reduction MDMA vs placebo", "setting": "baseline EAT-26≥11 subset", "value": 0.52}, {"measurement": "RCI score, EAT-26", "setting": "baseline EAT-26≥11 subset", "value": "−2.16"}, {"measurement": "within-subject mean (SD) reduction in EAT-26 scores", "setting": "baseline EAT-26≥11 subset", "value": "−9.58 (7.59)"}, {"measurement": "RCI score, EAT-26", "setting": "baseline EAT-26≥20 subset", "value": "−2.83"}, {"measurement": "within-subject mean reduction in EAT-26 scores", "setting": "baseline EAT-26≥20 subset", "value": "−14.08"}, {"measurement": "participants with EAT-26≥20 at follow-up", "setting": "reduced from 5 (11.90%) at baseline", "value": 2.38, "unit": "%"}, {"measurement": "within-subject mean (SD) reduction in EAT-26 scores, baseline to follow-up", "setting": "total sample", "value": "−3.04 (6.24)"}, {"measurement": "Hedge's g, EAT-26 change scores MDMA vs placebo", "setting": "total sample, adjusted for baseline", "value": 0.33}, {"measurement": "RCI score, EAT-26", "setting": "women with EAT-26≥11", "value": "−2.90"}, {"measurement": "Hedge's g, EAT-26 change scores MDMA vs. placebo", "setting": "women with baseline EAT-26≥11", "value": 0.63}, {"measurement": "Hedge's g, EAT-26 change scores MDMA vs. placebo", "setting": "women with baseline EAT-26≥20", "value": 0.60}, {"measurement": "RCI, change in EAT-26 score", "setting": "women with baseline EAT-26≥20, group not given", "value": "−18.80"}]}]}
